Measured values as given in ChEMBL document CHEMBL1146578, “10-Methoxydihydrofuscin, fuscinarin, and fuscin, novel antagonists of the human CCR5 receptor from Oidiodendron griseum” (J Nat Prod, 2003).

biological target: C-C chemokine receptor type 5 (Homo sapiens, UniProt P51681); test: Displacement of [125I]human-MIP1-alpha from human CCR5 receptor expressed in CHO cells by SPA; assay type: cell-based
Sequence (P51681 whole entry): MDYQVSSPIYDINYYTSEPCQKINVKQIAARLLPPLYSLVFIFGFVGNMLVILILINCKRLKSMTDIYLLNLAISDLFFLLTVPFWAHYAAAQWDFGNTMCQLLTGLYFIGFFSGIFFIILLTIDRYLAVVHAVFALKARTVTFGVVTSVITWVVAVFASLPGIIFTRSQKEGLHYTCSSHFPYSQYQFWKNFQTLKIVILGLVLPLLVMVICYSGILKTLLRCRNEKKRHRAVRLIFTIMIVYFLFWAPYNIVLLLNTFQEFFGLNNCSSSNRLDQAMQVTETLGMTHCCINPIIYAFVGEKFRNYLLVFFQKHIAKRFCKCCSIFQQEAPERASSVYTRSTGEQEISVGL

Row | IC50 [µM] | Structure (SMILES)
1 | 21 | CC1OC(=O)C=C2C3=C(OC(C)(C)CC3)C(=O)C(O)=C21 (stereo not drawn) [FUSCIN]
2 | 154 | COC1C(=O)OC(C)c2c(O)c(O)c3c(c21)CCC(C)(C)O3 (stereo not drawn)
3 | 80 | CC1OC(=O)c2c3c(c(O)c(O)c21)OC(C)(C)CC3 (stereo not drawn) [FUSCINARIN]
